In PubChem BioAssay AID179 (DTP/NCI, 2004) one finds EC50, IC50 and outcome data, which are given here for 69 compounds.

Broadly, the EC50 is the concentration needed to bring the measured effect to its halfway point. The IC50 is the concentration at which inhibition is half-maximal. The low end stands for greater potency in that assay, the high end for weaker potency in that assay.

For this assay, the system named is CEM cells HIV-1 protection, formazan growth assay. Nature of the assay: NCI AIDS Antiviral Assay. Particulars: for IC50: measured here: growth of uninfected CEM cells. A digest of the protocol:
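Steps: treat uninfected and HIV-1-infected human CEM cells at five drug levels; quantify growth by soluble formazan; retest any compound reaching 50% protection; classify actives from the retest.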

Active and inactive are the calls of the source.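 How the source made its calls: active means compounds giving half or more protection of infected cells from virus-caused growth loss, again on retest; inactive means the rest.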 Some results are limits rather than exact numbers.

Take `NCCN1C(=O)c2ccccc2C1(O)c1ccccc1` (stereo not drawn): the EC50 is > 200 µM and the IC50 was > 200 µM. On to `C=C1c2nc3ccccc3n2C=C(c2ccccc2)N1c1ccc(OC)cc1`, for which the EC50 was > 200 µM and the IC50 was 12.9 µM. As for `O=C1OC(c2ccc(Cl)cc2)(c2ccc(Cl)cc2)c2c1ccc1ccccc21`, the outcome was inactive. Turning to `C(#CCN1CCCCCC1)CN1CCCCCC1`, the EC50 was 182 µM and the IC50 was > 200 µM.

On to `CCOC(=O)/C=C/CC(C)(C)COC(C)=O`, for which the result was inactive.

Turning to `CCCCOC(=O)C(=O)/C(=C/N1C(=O)/C(=C/C(C)=C/c2ccccc2)SC1=S)C(=O)C=C(C)C`, the EC50 is > 100 µM and the IC50 turned out to be 14.8 µM. For the compound `O=C(Nc1ccc(C2=NCCN2)cc1)c1cccc(NC(=S)Nc2ccc(C3=NCCN3)cc2)c1`, the EC50 was 33.1 µM and the IC50 is 112 µM. With `COc1ccc(-c2cc(=O)c3c(OC)c(OC)c(OC)cc3o2)cc1`, the EC50 was > 129 µM and the IC50 was 41.7 µM. The matching figures for `O=C1c2ccccc2C(=O)C1(O)c1c[nH]c2ccccc12`: > 912 µM and 64.6 µM. With `COc1cc(OC)c2c(=O)c(OC)c(-c3ccc4c(c3)OCO4)oc2c1OC`, the EC50 is > 200 µM and the IC50 is > 200 µM.

On to `O=c1cc(CC(O)(C(F)(F)Cl)C(F)(F)Cl)[nH]n1-c1ccccc1`, for which the EC50 was > 200 µM and the IC50 amounted to 117 µM.

Regarding `O=C(O)c1cccc(S(=O)(=O)NN2C(=O)CSC2c2ccccc2Cl)c1` (stereo not drawn), the EC50 is > 195 µM and the half-maximal inhibitory concentration (IC50) came out at 166 µM. The corresponding values for `O=C(N=Nc1ccccc1Cl)NNc1ccccc1Cl` are > 200 µM and 31.6 µM. The matching figures for `CCC(O)(Cc1ccccc1)C(C(=O)O)c1ccccc1` (stereo not drawn): > 457 µM and 339 µM.

Turning to `O=C(CCCC(=O)NNC(=O)Nc1ccc(N=Nc2ccccc2)cc1)NNC(=O)Nc1ccc(N=Nc2ccccc2)cc1`, the EC50 was > 200 µM and the IC50 was > 200 µM. As for `O=c1[nH]c2ccccc2c(O)c1/C=N/C(=S)NCCc1ccccc1`, the EC50 was > 200 µM and the IC50 was > 200 µM. As for `O=C(c1ccccc1)C1C[C@H]2CO[C@H](c3ccccc3)N2C1=O` (stereo partly drawn), the EC50 is > 200 µM and the IC50 came out at 69.2 µM. The matching figures for `CCCCCCc1ccc(O)cc1O`: > 200 µM and 74.1 µM. For `CCN(CC)C1=NS(=O)(=O)c2ccccc2C(SC)=C1C`, the EC50 was > 275 µM and the IC50 is > 275 µM. Regarding `O=S(=O)(c1ccccc1)C1CC(c2ccccc2)N(c2ccccc2)O1` (stereo not drawn), the EC50 is > 27.5 µM and the IC50 is > 27.5 µM. As for `Cc1ccc2c(c1)sc1nnc(Cl)n12`, the EC50 is > 200 µM and the IC50 was > 200 µM. In the case of `CC(=C(C(N)=O)C(N)=O)C1C=C(c2cccs2)CC(c2ccc(Cl)cc2)=C1O` (stereo not drawn), the EC50 is > 200 µM and the IC50 is > 100 µM.

For the compound `Cc1nn(C)c(N)c1N=O`, the EC50 is > 200 µM and the IC50 is > 200 µM.

For the compound `Nc1ncnc2c1ncn2C1CC(CO)CO1` (stereo not drawn), the EC50 is 209 µM and the IC50 came out at 214 µM.

For the compound `CCOC(=O)CN1C(=O)c2ccc(NC(=O)C(=O)O)cc2S1(=O)=O`, the EC50 was > 200 µM and the IC50 is > 200 µM. Take `O=C(CNC(c1ccccc1)(c1ccccc1)c1ccccc1)NC1CCCCC1NC(=O)CNC(c1ccccc1)(c1ccccc1)c1ccccc1` (stereo not drawn): the EC50 is > 200 µM and the IC50 was > 200 µM. As for `CC(C)CCC[C@@H](C)C1CCC2[C@@H]3CCC4C[C@H](CCC=C(c5cc(Cl)c(O)c(C(=O)O)c5)c5cc(Cl)c(O)c(C(=O)O)c5)CC[C@]4(C)C3CC[C@@]21C` (stereo partly drawn), the EC50 was 35.5 µM and the IC50 was > 200 µM. In the case of `CN=C1Nc2ccccc2C(=O)N2CSCC12` (stereo not drawn), the EC50 is > 200 µM and the 50% inhibitory concentration (IC50) is > 200 µM.

On to `COc1ccc(C2C(Cl)C(=O)N2NC(=O)c2ccc(N)cc2)cc1OC` (stereo not drawn), for which the EC50 is > 200 µM and the IC50 amounted to 8.51 µM. The matching figures for `COC(=O)C(CNC(=O)/C=C/c1ccc(OC(C)=O)c(OC(C)=O)c1)NC(=O)/C=C/c1ccc(OC(C)=O)c(OC(C)=O)c1` (stereo not drawn): > 200 µM and 36.3 µM. The corresponding values for `COc1cc(NCC(C#N)C#N)ccc1N=Nc1ccc([N+](=O)[O-])cc1` are > 38.9 µM and > 38.9 µM.

As for `O=C(Nc1nc2ncn(CCOC(=O)c3ccccc3)c2c(=O)[nH]1)c1ccccc1`, the EC50 is > 85.1 µM and the IC50 turned out to be 61.7 µM. As to `C/C(=N\O)[C@H]1CC[C@H]2[C@@H]3CCC4=C/C(=N/O)CC[C@]4(C)[C@H]3C(=O)C[C@]12C`, the EC50 was > 200 µM and the IC50 was 39.8 µM. The matching figures for `COc1ccc(/C=N/N=C(\N)NO)c(OC)c1OC`: > 200 µM and > 200 µM.

As for `Cc1cn(C2CC(N=[N+]=[N-])C(COC(=O)CCCCCCCCCCCc3ccccc3)O2)c(=O)[nH]c1=O` (stereo not drawn), the EC50 is 0.0955 µM and the IC50 was determined as 89.1 µM. The corresponding values for `CC(C)=CCC[C@@H](C)C1=C(O)C(O)C(C)=C2N=C(c3ccccc3)C(=O)OC21` (stereo partly drawn) are > 200 µM and 3.8 µM.

For `CCOc1cc2ccc3c4cc(OC)c(OC)cc4cnc3c2cc1OCC`, the EC50 was > 36.3 µM and the IC50 was > 36.3 µM.

As to `COC(=O)C1CC(Sc2ccccc2)C(=O)C(C(=O)OC)C1` (stereo not drawn), the EC50 was > 112 µM and the IC50 amounted to 77.6 µM.

Turning to `Cc1ccc(/C=C/CO)cc1`, the outcome was inactive.

In the case of `Cc1cccc[c]1[Sb](=[O])([OH])[OH]`, the outcome was active. Take `COC1(CC[C@H](C)COC2OC(CO)C(O)C(O)C2O)O[C@H]2C[C@H]3[C@@H]4CC=C5C[C@@H](OC6OC(CO)C(O)C(OC7OC(CO)C(O)C(O)C7O)C6OC6OC(C)C(O)C(O)C6O)CC[C@]5(C)[C@H]4CC[C@]3(C)[C@H]2[C@@H]1C` (stereo partly drawn): the EC50 is > 200 µM and the IC50 is 3.89 µM.

Consider `O=C1c2ccccc2C(=O)N1n1c(Cc2ccc(Cl)cc2)n[nH]c1=O`, for which the EC50 was > 200 µM and the IC50 was > 200 µM. For `O=Cc1ccccc1OCCC[P+](c1ccccc1)(c1ccccc1)c1ccccc1`, the EC50 was > 200 µM and the IC50 came out at 2.51 µM. The corresponding values for `Cc1cccc(C)c1NC(=O)CCc1n[nH]c(=S)o1` are > 468 µM and > 468 µM.

On to `NCc1ccc(S(N)(=O)=O)cc1`, for which the EC50 was > 200 µM and the IC50 was > 200 µM. With `Cc1cc(N=Nc2ccc(C(=O)O)cc2)c(N)c(N=Nc2ccc(N=Nc3ccc(O)c(C(=O)O)c3)cc2)c1N`, the EC50 is 38 µM and the IC50 is 195 µM. In the case of `NCCSSc1ccccc1C(=O)O`, the EC50 was > 200 µM and the IC50 is > 200 µM.

On to `O=[N+]([O-])c1ccc2c(c1)nc1n2C(c2c(F)cccc2F)SC1` (stereo not drawn), for which the EC50 was 186 µM and the IC50 turned out to be 195 µM. The corresponding values for `Cc1ccc(/C=C/C(=O)C(C)C)cc1` are > 200 µM and 70.8 µM.

Regarding `CC(C)=CCN1c2ccccc2NC(=O)CC1C` (stereo not drawn), the EC50 is 7.94 µM and the IC50 was found to be 91.2 µM.

`FC(F)(F)C1(c2ccccc2)SCc2nc3ccccc3n21` (stereo not drawn): the EC50 was 77.6 µM and the IC50 was 105 µM. As for `O=C1CSC(c2c[nH]c3ccccc23)N1c1cccc(Cl)c1` (stereo not drawn), the EC50 is > 21.9 µM and the IC50 was > 21.9 µM. `CC1=C(C#N)c2nc3ccccc3n2C(=O)C1(C)CCO` (stereo not drawn): the EC50 is > 200 µM and the IC50 was > 200 µM. On to `Cn1cc(NC(=O)c2cc(NC(=O)CCCCCC(=O)Nc3cc(C(=O)Nc4cc(C(=O)NCCC(=N)N)n(C)c4)n(C)c3)cn2C)cc1C(=O)NCCC(=N)N`, for which the EC50 is 53.7 µM and the 50% inhibitory concentration (IC50) turned out to be 67.6 µM. In the case of `O=C(O)c1cc(Cl)cc(NC(=O)C(Cl)Cl)c1Cl`, the EC50 was > 794 µM and the IC50 came to 617 µM.

Consider `Cc1ccc(S(=O)(=O)N/N=C(/c2nc3ccc([N+](=O)[O-])cc3[nH]c2=O)C(O)c2ccc(C(O)/C(=N\NS(=O)(=O)c3ccc(C)cc3)c3nc4ccc([N+](=O)[O-])cc4[nH]c3=O)cc2)cc1` (stereo not drawn), for which the EC50 is > 39.8 µM and the IC50 is > 39.8 µM. Take `CCCc1cc(=O)oc2c3c(c4c(c12)OC(C)(C)[C@@H](OC(=O)c1ccc(Br)cc1)[C@H]4OC(=O)c1ccc(Br)cc1)O[C@@H](C)[C@H](C)[C@@H]3OC(=O)c1ccc(Br)cc1`: the EC50 is > 200 µM and the IC50 was > 200 µM.

On to `O=[N+]([O-])C(=C1Nc2ccccc2N1)C(Cl)=C(Cl)Cl`, for which the EC50 was > 200 µM and the half-maximal inhibitory concentration (IC50) is 105 µM. For `COC(=O)c1sc2c(=O)c(C(=O)OC)c(C(=O)OC)sc2c(=O)c1C(=O)OC`, the EC50 was > 151 µM and the IC50 is 12 µM.

As to `CC/C(=C\c1ccc(OC)cc1)c1ccc(OC)cc1`, the EC50 is > 200 µM and the IC50 was > 200 µM.

With `C[C@]12CC[C@@H]3c4ccc(OS(N)(=O)=O)cc4CC[C@H]3[C@@H]1CCC2=O`, the outcome was inactive. For the compound `COc1ccc2oc(=N)c(C(=O)NCc3ccccc3)cc2c1`, the EC50 was > 200 µM and the IC50 was determined as 17.8 µM.

As for `CCOC(=O)/C(O)=C(\C=N\C(=S)Nc1ccc(Cl)c(Cl)c1)C(=O)OCC`, the EC50 is > 200 µM and the half-inhibitory concentration (IC50) was > 200 µM. Regarding `CC(=O)C(C(=O)C(C)(C)C)C(=O)C(C)(C)C`, the EC50 is > 200 µM and the IC50 is > 200 µM. Take `CN(C)c1ccc(/C=C(\NC(=O)c2ccccc2)c2nc3ccccc3c(=O)o2)cc1`: the EC50 is > 100 µM and the IC50 was > 100 µM. For the compound `Cc1cc(=O)oc2c(CNC(C)C(=O)O)c(O)ccc12` (stereo not drawn), the EC50 was > 200 µM and the IC50 was 186 µM. For the compound `CCCC1N2CCCCC2[C@@H]2c3[nH]c4ccccc4c3CCN12` (stereo partly drawn), the EC50 is > 427 µM and the IC50 is > 427 µM. On to `Cc1n[nH]c(=O)n1C1CCCC1`, for which the EC50 was > 200 µM and the IC50 was > 200 µM.

Regarding `COc1ccc(C2=NOC(N)(c3ccc(OC)cc3)C2)cc1` (stereo not drawn), the EC50 is > 200 µM and the IC50 was > 200 µM.
